# Data taken from US8980926B2, “2-aminoindole compounds and methods for the treatment of malaria” (Genzyme Corporation, priority 2009, dated 2015).
# Where two headings read alike, the source gives them in different places.
# How the values were obtained:
# P. falciparum strain 3D7 = assay: In vitro potency against P. falciparum strain 3D7 (SYBR green/DAPI); format: cell-based; conditions: Plasmodium falciparum
# [1] = tested on: Plasmodium falciparum strain Dd2; assay: In vitro potency against P. falciparum strain Dd2; format: cell-based; conditions: read-out: Potency (IC50; nM) Plasmodium spp. Pf Dd2
# P. knowlesi strain H1 = assay: In vitro potency against P. knowlesi H1 in Rhesus blood cells (3H-hypoxanthine incorporation); format: cell-based; conditions: Plasmodium knowlesi, in Macaca mulatta, read-out: Potency (IC50; nM) Plasmodium spp. Pk H1
# Method: Selected compounds were tested against P. knowlesi H1 strain parasites cultured in Rhesus blood cells as a surrogate for P. vivax infections using the method of Kocken and coworkers (Kocken, C. H., H. Ozwara, A. van der Wel, A. L. Beetsma, J. M. Mwenda, and A. W. Thomas. 2002. Plasmodium knowlesi provides a rapid in vitro and in vivo transfection system that enables double-crossover gene knockout studies. Infect Immun 70:655-660). Briefly, P. knowlesi were cultured in 2% Rhesus macaque erythrocytes (New England Primate Research Center) in RPMI culture media containing 10% Human O+ serum (Interstate Blood Bank). Schizont stage parasites were purified by floatation in 60% Percoll (GE life sciences) and allowed to reinvade to generate a synchronous population of ring stage parasites. Drug assays were performed by plating ring stage parasites at 0.5% parasitemia in triplicate, in RPMI containing 2.5 μg/ml hypoxanthine. Parasites were incubated for 24 hours with serially diluted test compounds. After 24 hours, thin smears were made to confirm that reinvasion had occurred, 0.5 μCi ^3H-labeled hypoxanthine (Perkin Elmer) were added to each well, and parasites were allowed to progress through S-phase to early schizonts. Cells were then harvested via glass filter plates and ^3H incorporation was measured by scintillation counting. Values were normalized to percentage of controls containing no drug, and IC50 values were generated (GraphPad Prism®).
# [2] = Mammalian cytotoxicity, dermal fibroblast; format: cell-based; conditions: human, normal human dermal fibroblasts (Clonetics #CC-2509); read-out: Selectivity, Mammalian cytotoxicity (IC50; μM) Dermal Fibroblast
# [3] = Mammalian cytotoxicity, kidney epithelial; format: cell-based; conditions: normal human renal proximal tubule cells; read-out: Selectivity, Mammalian cytotoxicity (IC50; μM) Kidney epithelial
# Erythrocyte lysis = format: cell-based; conditions: erythrocytes, read-out: Selectivity, Mammalian cytotoxicity (IC50; μM) Eryth. Lysis
# hERG = target: T1, hERG (Homo sapiens, UniProt Q12809); assay: hERG in Chinese hamster ovary cells; format: cell-based
# T1 construct: expressed in transfected cells; host or cells: Chinese hamster ovary cells (from the earlier reading's assay name)
# P. berghei N-clone = assay: In vivo efficacy against P. berghei in mice (4-day suppressive test, oral); parameters: species or system P. berghei in Swiss Albino mice; conditions: for Average Day of Recrudescence: Study Day; for No. Cured: animals cured/group; for Recrudescence (no. animals/total): no parasites on Day 5 but later regressed; for % Suppression Day 5: vs untreated controls; for % of group without parasites: FIG. 3D; for cures: doses of 100-200 mg/kg/day
# Text: Because of ethical issues and costs, the acute P. berghei model in rodents is considered the “gold standard” for assessing anti-malarial efficacy in animal models. This model is adapted from Peters' “4-day suppressive test” (Peters, W. 1987. Chemotherapy and Drug Resistance in Malaria, p. 102-115, 2ed, vol. 1. Academic Press, Orlando, Fla.; Peters, W. 1975. The chemotherapy of rodent malaria, XXII. The value of drug-resistant strains of P. berghei in screening for blood schizontocidal activity. Ann Trop Med Parasitol 69:155-171). All studies were conducted in accordance with the Guide for the Care and Use of Laboratory Animals (National-Research-Council. 1996. Guide for the Care and Use of Laboratory Animals. National Academy Press, Washington, D.C.) and the PHS guidelines. Animals were maintained according to NIH guidelines and were allowed to acclimatize for 1 week prior to the commencement of studies. On Day 0, groups of 4-6-week old female Swiss Albino mice (n=5) were infected by tail vein injection with 0.2 ml heparinized blood diluted to contain 1×10^7 N-clone parasites. The aminoindole analogs were formulated in 1.6% lactic acid mixed sodium salt, 1% Tween 80, 9% ethanol and 20% Cerestar (hydroxypropyl β-cyclodextrin; Wacker Chimie) and were administered by oral gavage. […] Animals in the Control-group received vehicle alone. Dose concentration and frequency of dosing were based upon preliminary tolerability/exposure studies. On Day 4 post-infection (5th day of assay) blood was collected by tail-nick, and thin smear microscope slides were prepared and stained using Diff Quick®. Parasitized erythrocytes were counted and compared with the total number of erythrocytes per microscopic field to determine the percent parasitemia. A minimum of 350 erythrocytes were counted. Animals showing no detectable parasites on Day 4 were examined every 2-3 days to determine whether cure was sterile. Animals with no detectable parasites 28 days after cessation of dosing (Study Day 33) were considered cured.
# P. berghei ANKA strain = assay: In vitro potency against P. berghei ANKA; format: cell-based; conditions: Plasmodium berghei, read-out: Potency (IC50; nM) Plasmodium spp. Pb ANKA
# [4] = tested on: P. berghei ANKA strain GFP MRA-865; assay: In vivo efficacy against P. berghei ANKA GFP in the humanized murine system; parameters: species or system P. berghei in mice; conditions: b.i.d.
# [5] = tested on: P. falciparum Pf3D7^0087/N9; assay: In vivo efficacy against P. falciparum in humanized mice; conditions: b.i.d.
# malaria = assay: In vivo efficacy in an animal (rodent) model of malaria (FIGS. 1, 2); conditions: for in vivo efficacy (treatment of malaria) / in vivo efficacy (reducing parasitemia): 50 mg/kg dose
# [6] = read-out: Potency (IC50; nM) Plasmodium spp. Pf 3D7
# [7] = reductions in parasitemia, read-out: IC50 values
# T1 sequence (Q12809 whole entry): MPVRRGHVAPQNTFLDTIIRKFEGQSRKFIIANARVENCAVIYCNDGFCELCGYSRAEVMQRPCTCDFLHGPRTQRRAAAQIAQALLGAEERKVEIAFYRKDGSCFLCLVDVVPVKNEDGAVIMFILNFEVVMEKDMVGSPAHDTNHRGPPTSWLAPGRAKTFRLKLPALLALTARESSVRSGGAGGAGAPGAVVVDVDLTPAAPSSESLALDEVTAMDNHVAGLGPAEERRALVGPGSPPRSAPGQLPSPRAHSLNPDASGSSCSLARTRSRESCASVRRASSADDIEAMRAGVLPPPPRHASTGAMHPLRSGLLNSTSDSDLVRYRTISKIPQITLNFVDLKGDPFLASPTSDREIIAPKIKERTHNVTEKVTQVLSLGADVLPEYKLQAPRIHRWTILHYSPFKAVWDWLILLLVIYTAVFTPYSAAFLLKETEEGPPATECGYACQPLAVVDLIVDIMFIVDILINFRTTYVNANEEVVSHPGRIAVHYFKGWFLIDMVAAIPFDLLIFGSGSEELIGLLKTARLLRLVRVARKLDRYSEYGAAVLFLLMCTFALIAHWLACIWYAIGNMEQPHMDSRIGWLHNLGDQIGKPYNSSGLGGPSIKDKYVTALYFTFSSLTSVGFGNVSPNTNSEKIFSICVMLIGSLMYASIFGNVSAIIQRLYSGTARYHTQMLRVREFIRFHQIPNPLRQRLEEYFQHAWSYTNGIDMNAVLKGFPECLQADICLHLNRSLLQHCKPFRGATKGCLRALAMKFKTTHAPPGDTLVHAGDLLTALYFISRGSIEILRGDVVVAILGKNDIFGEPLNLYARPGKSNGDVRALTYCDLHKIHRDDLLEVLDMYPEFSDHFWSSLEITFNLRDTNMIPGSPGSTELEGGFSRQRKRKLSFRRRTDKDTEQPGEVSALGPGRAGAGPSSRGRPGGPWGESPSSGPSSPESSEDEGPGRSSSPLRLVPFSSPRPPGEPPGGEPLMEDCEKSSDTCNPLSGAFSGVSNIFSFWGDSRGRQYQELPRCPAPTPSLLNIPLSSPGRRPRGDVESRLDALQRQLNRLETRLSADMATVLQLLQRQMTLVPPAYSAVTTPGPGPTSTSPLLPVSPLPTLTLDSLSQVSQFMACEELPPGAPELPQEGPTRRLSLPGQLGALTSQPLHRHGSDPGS
Compound,IC50 (P. falciparum strain 3D7; [6]) [nM],IC50 (P. falciparum strain 3D7; [7]) [nM],IC50 [1] [nM],IC50 (P. knowlesi strain H1) [nM],IC50 (P. berghei ANKA strain) [nM],IC50 [2] [µM],IC50 [3] [µM],IC50 (Erythrocyte lysis) [µM],"Selectivity, hERG (μM) CHO (hERG) [µM]",Average Day of Recrudescence (P. berghei N-clone; 100 mg/kg/day b.i.d. p.o.) [days],No. Cured (P. berghei N-clone; 100 mg/kg/day b.i.d. p.o.),Recrudescence (no. animals/total) (P. berghei N-clone; 100 mg/kg/day b.i.d. p.o.),% Suppression Day 5 (P. berghei N-clone; 100 mg/kg/day b.i.d. p.o.) [%],No. Cured (P. berghei N-clone; 200 mg/kg/day b.i.d. p.o.),% Suppression Day 5 (P. berghei N-clone; 200 mg/kg/day b.i.d. p.o.) [%],cures (P. berghei N-clone),Average Day of Recrudescence (P. berghei N-clone; 50 mg/kg/day b.i.d. p.o.) [days],No. Cured (P. berghei N-clone; 50 mg/kg/day b.i.d. p.o.),Recrudescence (no. animals/total) (P. berghei N-clone; 50 mg/kg/day b.i.d. p.o.),% Suppression Day 5 (P. berghei N-clone; 50 mg/kg/day b.i.d. p.o.) [%],further results
"CCOc1ccc(F)cc1C1(O)C(N)=Nc2ccc(Cl)cc21 (racemic) [Compound 142, 2-amino-5-chloro-3-(2-ethoxy-5-fluorophenyl)-3H-indol-3-ol]",23,1 to 100,49,38,,> 195,> 195,> 125,21,11,0/5,1/5,99,3/5,99,able to affect cures,,,,,"Average Day of Recrudescence (P. berghei N-clone; 200 mg/kg/day b.i.d. p.o.): 13 days; Recrudescence (no. animals/total) (P. berghei N-clone; 200 mg/kg/day b.i.d. p.o.): 1/5; % of group without parasites (P. berghei N-clone; day 5, 100/mg/kg/day): 20%; % of group without parasites (P. berghei N-clone; day 5, 200/mg/kg/day): 80%; % of group without parasites (P. berghei N-clone; day 30, 200/mg/kg/day): 60%"
CCOc1ccc(F)cc1[C@@]1(O)C(N)=Nc2ccc(Cl)cc21 (stereo in doubt) [Compound 267],28,1 to 100,65,26,331,> 195,> 195,> 125,36.6,14,0/5,2/4,95,3/5,100,able to affect cures,,,,,Average Day of Recrudescence (P. berghei N-clone; 200 mg/kg/day b.i.d. p.o.): 12 days; Recrudescence (no. animals/total) (P. berghei N-clone; 200 mg/kg/day b.i.d. p.o.): 2/5; ED50 P. berghei N-clone (P. berghei N-clone; b.i.d.): 32 mg/kg/day; ED90 P. berghei N-clone (P. berghei N-clone; b.i.d.): 68 mg/kg/day; ED50 P. berghei N-clone (P. berghei N-clone; t.i.d.): 35 mg/kg/day; ED90 P. berghei N-clone (P. berghei N-clone; t.i.d.): 58 mg/kg/day; ED50 P. berghei ANKA strain GFP MRA-865 [4]: 19 mg/kg/day; ED90 P. berghei ANKA strain GFP MRA-865 [4]: 30 mg/kg/day; ED50 P. falciparum Pf3D7^0087/N9 [5]: 40 mg/kg/day; ED90 P. falciparum Pf3D7^0087/N9 [5]: 74 mg/kg/day
NC1=Nc2ccc(Cl)cc2C1(O)c1ccccc1 (stereo not drawn) [Compound 1],200,100 to 500,285,336,1560,> 242,> 242,> 155,>25,,,,,,,,13,0/5,5/5,100,"in vivo efficacy (treatment of malaria) (malaria; IP administration for four days, FIG. 1): effectively treated malaria; in vivo efficacy, dose dependence (malaria; IP administration for four days at various doses, FIG. 1): dose-response relationship was observed"
Cc1ccc2c(c1)C(O)(c1ccccc1)C(N)=N2 (stereo not drawn) [Compound 37],183,1 to 100,455,318,,> 62.5,> 62.5,> 168,,17,3/5,2/5,100,5/5,100,able to affect cures,,,,,
CC(C)C1(O)C(N)=Nc2ccc(Cl)cc21 (stereo not drawn) [Compound 39],108,100 to 500,347,190,2990,> 62.5,> 62.5,> 178,,13,0/5,3/5,99,,,,10,0/5,3/5,98,

# Continued, in another order:
IC50 (P. falciparum strain 3D7; [6]) [nM],IC50 (P. falciparum strain 3D7; [7]) [nM],IC50 [1] [nM],IC50 (P. knowlesi strain H1) [nM],IC50 (P. berghei ANKA strain) [nM],Compound,IC50 [2] [µM],IC50 [3] [µM],IC50 (Erythrocyte lysis) [µM],"Selectivity, hERG (μM) CHO (hERG) [µM]",Average Day of Recrudescence (P. berghei N-clone; 100 mg/kg/day b.i.d. p.o.) [days],No. Cured (P. berghei N-clone; 100 mg/kg/day b.i.d. p.o.),Recrudescence (no. animals/total) (P. berghei N-clone; 100 mg/kg/day b.i.d. p.o.),% Suppression Day 5 (P. berghei N-clone; 100 mg/kg/day b.i.d. p.o.) [%],No. Cured (P. berghei N-clone; 200 mg/kg/day b.i.d. p.o.),% Suppression Day 5 (P. berghei N-clone; 200 mg/kg/day b.i.d. p.o.) [%],cures (P. berghei N-clone),Average Day of Recrudescence (P. berghei N-clone; 50 mg/kg/day b.i.d. p.o.) [days],No. Cured (P. berghei N-clone; 50 mg/kg/day b.i.d. p.o.),Recrudescence (no. animals/total) (P. berghei N-clone; 50 mg/kg/day b.i.d. p.o.),% Suppression Day 5 (P. berghei N-clone; 50 mg/kg/day b.i.d. p.o.) [%],further results
665,100 to 500,1460,,1360,NC1=Nc2ccc(Cl)cc2[C@@]1(O)c1ccccc1 [Compound 2],> 242,> 242,> 155,,,,,,,,,,0/5,,80,in vivo efficacy (reducing parasitemia) (malaria; FIGS. 2A and 2B): efficacious for reducing parasitemia
313,100 to 500,675,,1690,NC1=Nc2ccc(Cl)cc2[C@]1(O)c1ccccc1 [Compound 3],> 242,> 242,> 155,,,5/5,,100,,,able to affect cures,12,2/5,3/5,100,in vivo efficacy (reducing parasitemia) (malaria; FIGS. 2A and 2B): efficacious for reducing parasitemia; in vivo efficacy (treatment of malaria) (malaria; FIGS. 2A and 2B): effectively treated malaria
22,1 to 100,37,90,,CC(C)Oc1ccccc1C1(O)C(N)=Nc2ccc(Cl)cc21 (stereo not drawn) [Compound 146],> 188,> 188,> 120,19,6,0/5),1/5,99,,,,,,,,
